Assay: Inhibition of PB2 in Influenza A virus (A/Weiss/1943(H1N1)) infected in MDCK cells assessed as reduction in virus induced cell death after 5 days by CCK-8 assay

Point of comparison: `O=C(O)[C@H]1C2CCC(CC2)[C@@H]1Nc1nc(-c2c[nH]c3ncc(F)cc23)nc2c1CCS2`, EC50 2.8 nM. Against it:
- O=C(O)[C@H]1C2CCC(CC2)[C@@H]1Nc1nc(-c2n[nH]c3ncc(F)cc23)nc2ccsc12 — 5.6-fold lower, 0.5 nM
- O=C(O)[C@H]1C2CCC(CC2)[C@@H]1Nc1nc(-c2c[nH]c3ncc(F)cc23)nc2cscc12 — 2-fold lower, 1.4 nM
- N#Cc1cn([C@H]2C3CCC(CC3)[C@@H]2C(=O)O)c2nc(-c3c[nH]c4ncc(F)cc34)ncc12 — 25-fold higher, 70 nM
- O=C(O)[C@H]1C2CCC(CC2)[C@@H]1n1cnc2cnc(-c3c[nH]c4ncc(F)cc34)nc21 — 68-fold higher, 190 nM
- Cc1cnc2c(N[C@H]3C4CCC(CC4)[C@@H]3C(=O)O)nc(-c3c[nH]c4ncc(F)cc34)nc2c1 — 3.9-fold higher, 11 nM
- O=C(O)[C@H]1C2CCC(CC2)[C@@H]1Nc1nc(-c2c[nH]c3ncc(F)cc23)nc2nccnc12 — 4.6-fold higher, 13 nM
- O=C(O)[C@H]1C2CCC(CC2)[C@@H]1Nc1nc(-c2c[nH]c3ncc(F)cc23)nc2scnc12 — within 1.5-fold, 3 nM
- Cc1cccc2nc(-c3c[nH]c4ncc(F)cc34)nc(N[C@H]3C4CCC(CC4)[C@@H]3C(=O)O)c12 — 3.9-fold higher, 11 nM
- O=C(O)[C@H]1C2CCC(CC2)[C@@H]1Nc1nc(-c2n[nH]c3ncc(F)cc23)nc2sccc12 — 47-fold lower, 0.06 nM
- O=C(O)[C@H]1C2CCC(CC2)[C@@H]1Nc1nc(-c2c[nH]c3ncc(F)cc23)nc2c1CSC2 — within 1.5-fold, 2.6 nM
- Cc1cccc2nc(N[C@H]3C4CCC(CC4)[C@@H]3C(=O)O)nc(-c3c[nH]c4ncc(F)cc34)c12 — 160-fold higher, 450 nM
- O=C(O)[C@H]1C2CCC(CC2)[C@@H]1Nc1nc(-c2c[nH]c3ncc(F)cc23)nc2c1CCCC2 — 4.3-fold higher, 12 nM
- O=C(O)[C@H]1C2CCC(CC2)[C@@H]1Nc1nc(-c2c[nH]c3ncc(F)cc23)nc2sccc12 — 14-fold lower, 0.2 nM
- Cn1cc(F)c2c(N[C@H]3C4CCC(CC4)[C@@H]3C(=O)O)nc(-c3c[nH]c4ncc(F)cc34)nc21 — 3.4-fold higher, 9.6 nM
- O=C(O)[C@H]1C2CCC(CC2)[C@@H]1Nc1nc(-c2c[nH]c3ncc(F)cc23)nc2[nH]ccc12 — 1.6-fold higher, 4.5 nM
- O=C(O)[C@H]1C2CCC(CC2)[C@@H]1Nc1nc(-c2c[nH]c3ncc(F)cc23)nc2ccsc12 — 5.6-fold lower, 0.5 nM
- O=C(O)[C@H]1C2CCC(CC2)[C@@H]1Nc1nc(-n2ccc3ncc(F)cc32)ncc1F — 82-fold higher, 230 nM
- O=C(O)[C@H]1C2CCC(CC2)[C@@H]1Nc1nc(-c2c[nH]c3ncc(F)cc23)nc2cc(C(F)F)sc12 — 3.6-fold higher, 10 nM
- N#Cc1csc2c(N[C@H]3C4CCC(CC4)[C@@H]3C(=O)O)nc(-c3c[nH]c4ncc(F)cc34)nc12 — within 1.5-fold, 4 nM
- O=C(O)[C@H]1C2CCC(CC2)[C@@H]1Nc1nc(-c2c[nH]c3ncc(F)cc23)nc2cc(F)cnc12 — 3.6-fold higher, 10 nM
- O=C(O)[C@H]1C2CCC(CC2)[C@@H]1n1ccc2cnc(-c3c[nH]c4ncc(F)cc34)nc21 — 4.3-fold higher, 12 nM
- O=C(O)[C@H]1C2CCC(CC2)[C@@H]1Nc1nc(-c2c[nH]c3ncc(F)cc23)nc2c1S(=O)(=O)CC2 — 39-fold higher, 110 nM
- O=C(O)[C@H]1C2CCC(CC2)[C@@H]1Nc1nc(-c2n[nH]c3ncc(F)cc23)nc2c1SCC2 — 14-fold lower, 0.2 nM
- O=C(O)[C@H]1C2CCC(CC2)[C@@H]1Nc1nc(-c2c[nH]c3ncc(F)cc23)nc2ccoc12 — 1.9-fold higher, 5.3 nM
- O=C(O)[C@H]1C2CCC(CC2)[C@@H]1Nc1nc(-c2c[nH]c3ncc(F)cc23)nc2c1SCC2 — 7-fold lower, 0.4 nM
- O=C(O)[C@H]1C2CCC(CC2)[C@@H]1Nc1nc(-c2c[nH]c3ccc(F)cc23)ncc1F — 79-fold higher, 220 nM
- O=C(O)[C@H]1C2CCC(CC2)[C@@H]1N1CCOc2cnc(-c3c[nH]c4ncc(F)cc34)nc21 — 8.6-fold higher, 24 nM
- O=C(O)[C@H]1C2CCC(CC2)[C@@H]1Nc1nc(-c2c[nH]c3ncc(F)cc23)nc2cccc(F)c12 — 7.1-fold higher, 20 nM
- O=C(O)[C@H]1C2CCC(CC2)[C@@H]1Nc1nc(-c2c[nH]c3ncc(F)cc23)nc2c1CCC2 — 2-fold higher, 5.5 nM
- O=C(O)[C@H]1C2CCC(CC2)[C@@H]1Nc1nc(-c2c[nH]c3ncc(F)cc23)nc2c1CS(=O)(=O)C2 — 710-fold higher, 2000 nM
- O=C(O)[C@H]1C2CCC(CC2)[C@@H]1Nc1nc(-c2c[nH]c3ncc(F)cc23)nc2cccnc12 — 5-fold higher, 14 nM
- O=C(O)[C@H]1C2CCC(CC2)[C@@H]1Nc1nc(-c2c[nH]c3ncc(F)cc23)ncc1F — 4.7-fold lower, 0.6 nM

Source: BindingDB's records for doi:10.1016/j.ejmech.2018.11.015 (Fudan University, 2019)
